Consider two molecules from patent publication US20030212105A1, “Novel anti-fertility agent” (priority 2002, published 2003).

The test system of data set [1] is female albino rats. Kind of data set: Preovulatory effects of roxatidine acetate in female albino rats. To be noted: 2.5, 10, 15 & 20 mg/kg for 15 consecutive days before mating; dose group not stated. Type of data set: in vivo, rat. As to the method:
Animals with normal estrus cycle were divided into […] with 10 animals in each group. Group I served as control and received distilled water orally. Animals in Group II, II, IV & V were administered roxatidine acetate at the doses of 2.5, 10, 15, & 20 mg/kg body weight respectively, for 15 consecutive days. During this period daily vaginal smears were taken to observe the regularity of the estrus cycle.
The females in all the groups were then paired with males of proven fertility. Daily vaginal smears were taken until the animals successfully mated. This was indicated by the presence of spermatozoa in the vaginal smears and this was taken as day 1 of pregnancy. On day 10 each animal was laprotomized and the no. of implants/resorption sites and the no. of corpora lutea were counted. The number of litters delivered at the end of the gestation period were 2.

The nature of data set [2]: Solubility in water (preparation of drug solution). Type of data set: physicochemical. To be noted: distilled water.
The subject of data set [3] is female albino rats. Briefly: Anti-implantation studies of roxatidine acetate in female rats (post coital). Type of data set: in vivo, rat. As to the method:
Roxatidine was screened as a post coital anti-fertility agent on different days of pregnancy i.e. day 1st, days 1st-3rd day 4th i.e. day of ([…] days 1st-5th, days 1st-7th and day 15th-20th i.e. period of organogenesis) post coitum. The aim of the study was to determine the minimum possible dose of drug showing anti implantation activity and the specific days of gestation period when the activity is maximum studies were carried out in order to determine the possible mechanism of action of the drug. Further ELISA was conducted to assess the effects of roxatidine on the serum level of estrogen and progesterone respectively.
Daily vaginal smears of the female albino rats were taken and the regular periodicity of the estrus cycle was checked.
The animals were held, ventral side up and a drop of 0.9% saline was inserted into the vagina with the help of a Pasteur pipette, carefully, without damaging the vaginal wall to avoid false positive smears. The drop of normal saline was aspirated and replaced several times with the vaginal fluid, withdrawn and transferred to a microscopic slide. A coverslip was placed carefully on the smear avoiding the air bubble. The slide was then observed under a compound microscope (magnification-45×) and the stage of estrus cycle was determined.
Female rats in proestrus or estrus stage were housed with mature male rats (in the ratio 3 females:1 male). Each female was examined for the presence of spermatozoa in the early morning. The day on which this sign of mating is seen is taken as day 1 of pregnancy. The female was then separated and caged singly. Roxatidine was administered orally to the animal once daily on specific days of pregnancy at different concentrations.
Pregnant rats were divided into 5 groups of 10 animals each. To group I, which served as control, a constant volume of distilled water was administered orally with the help of a catheter. The drug namely, roxatidine was administered at doses of 2.5, 10, 15 & 20 mg/kg body weight orally, on specific days of pregnancy.
Fifty albino rats were divided into groups of 10 animals each. Group I served as control and received distilled water. Group II to V received Roxatidine acetate at doses of 2.5,10,15 & 20 mg/kg body weight, orally respectively on day 1 postcoital with the help of a catheter.
On day 10 of pregnancy the animal was laprotomized and the number of implants present in both the uterine horns as well as the number of corpora lutea on each ovary was counted. The animals were allowed to complete the gestation period (usually 21-23 days) and the number of litters delivered, if any were counted In this case, 2 litters were delivered.
Fifty albino rats were divided into groups of 10 animals each. Group I served as control and received distilled water. Group II to V received Roxatidine acetate at doses of 2.5,10,15 & 20 mg/kg body weight, orally respectively on day 1-3 postcoital with the help of a catheter.
On day 10 of pregnancy the animal was laprotomized and the number of implants present in both the uterine horns as well as the number of corpora lutea on each ovary was counted.
Fifty albino rats were divided into groups of 10 animals each. Group I served as control and received distilled water. Group II to V received Roxatidine acetate at doses of 2.5,10,15 & 20 mg/kg body weight, orally respectively on day 4 postcoital with the help of a catheter.
On day 10 of pregnancy the animal was laprotomized and the number of implants present in both the uterine horns as well as the number of corpora lutea on each ovary was counted. The animals were allowed to complete the gestation period (usually 21-23 days) at the end of which 3 litters were found.
Fifty albino rats were divided into groups of 10 animals each. Group I served as control and received distilled water. Group II to V received Roxatidine acetate at doses of 2.5, 10, 15 & 20 mg/kg body weight, orally respectively on day 1-7 postcoital with the help of a catheter. […]

The next data set has as its system pregnant female rats. To be noted: cited from earlier work.

On to `CC(=O)OCC(=O)NCCCOc1cccc(CN2CCCCC2)c1` [Roxatidine acetate], for which the “number of litters delivered at the end of the gestation period” value with female albino rats [1] was 2. Besides, the solubility in water entry in data set [2] is “readily and completely soluble in water”. In addition, the “number of litters found at end of gestation period” value with female albino rats [3] (2.5, 10, 15 & 20 mg/kg orally on day 1-3 postcoital, gestation 21-23 days) is on record as “no litters were found”; with female albino rats [3] (2.5, 10, 15 & 20 mg/kg orally on day 1-5 postcoital, gestation 21-23 days), “no litters were found”; in the data set on female albino rats [3] (2.5, 10, 15 & 20 mg/kg orally on day 1-7 postcoital, gestation 21-23 days), “no litters were found”; with female albino rats [3] (2.5, 10, 15 & 20 mg/kg orally on day 4 postcoital, gestation 21-23 days, dose group not stated), 3. In addition, in the data set with female albino rats [3] (2.5, 10, 15 & 20 mg/kg orally on day 1 postcoital, gestation 21-23 days, dose group not stated), the “number of litters delivered at end of gestation period” value came to 2. In addition, the “number of litters seen at end of gestation period” value with female albino rats [3] (2.5, 10, 15 & 20 mg/kg orally on day 15-20 postcoital, gestation 21-23 days, dose group not stated) is reported as 2. Moreover, in the data set on female albino rats [3] (administered in animal models), the inhibition of implantation entry is given as “effective in inhibiting implantation”.

For the molecule `CN/C(=N/CCSCc1nc[nH]c1C)NC#N` [cimetidine], the anti-implantation effects entry in the data set with pregnant female rats (oral, daily for 1-7 days post coitum, pregnant female rats) is listed as “exhibited anti-implantation effects”. Also, the oestrogenic/anti-oestrogenic activity result in the data set on pregnant female rats (rats) was “did not possess oestrogenic/anti-oestrogenic activity”.
